Laboratory results reported in ChEMBL document CHEMBL1139820, “Synthesis of new 7-chloroquinolinyl thioureas and their biological investigation as potential antimalarial and anticancer agents” (Bioorg Med Chem Lett, 2007).

Experiments:
HeLa = assay: Cytotoxicity against human HeLa cells assessed as cell survival after 7 hrs by MTT assay; type: functional, cell-based
Plasmodium falciparum = assay: Antiplasmodial activity against chloroquine-sensitive Plasmodium falciparum D10 in LDH reporter assay after 48 hrs; type: functional, organism-based; conditions: D10, 48 h
[1] = Selectivity index, Ratio of IC50 for human HeLa cells to IC50 for Plasmodium falciparum D10; type: functional

Row | IC50 (Plasmodium falciparum) [µM] | SMILES | IC50 (HeLa) [µM] | Ratio IC50 [1]
1 | 3.3 | NCCNC(=S)Nc1ccnc2cc(Cl)ccc12 | 18 | 5.4581
2 | > 3.26 | S=C(Nc1ccnc2cc(Cl)ccc12)N1CCNCC1 |  | 
3 | 2.2 | CCN(CC)CCCNC(=S)Nc1ccnc2cc(Cl)ccc12 | 49.2 | 22.355
4 | 1.2 | CN(C)CCCNC(=S)Nc1ccnc2cc(Cl)ccc12 | 48.5 | 40.375
5 | > 2.62 | CCSc1nnc(NC(=S)Nc2ccnc3cc(Cl)ccc23)s1 |  | 
6 | > 3.5 | OCCNC(=S)Nc1ccnc2cc(Cl)ccc12 | > 50 | >14.28

Continued, molecule first:

Row | SMILES | IC50 (Plasmodium falciparum) [µM] | IC50 (HeLa) [µM] | Ratio IC50 [1]
7 | CCN1CCN(C(=S)Nc2ccnc3cc(Cl)ccc23)CC1 | 1.8 | > 50 | >27.77
8 | S=C(Nc1ccnc2cc(Cl)ccc12)N1CCN(c2ccccc2)CC1 | > 2.61 | 43.6 | 
9 | CCOC(=O)N1CCN(C(=S)Nc2ccnc3cc(Cl)ccc23)CC1 | > 2.6 | 40.1 | 
10 | S=C(Nc1ccnc2cc(Cl)ccc12)N1CCN(CC2CCCCC2)CC1 | > 2.4 | > 50 | >20.83
11 | S=C(Nc1ccnc2cc(Cl)ccc12)N1CCN(Cc2ccccc2)CC1 | > 2.5 | 28.9 | 
12 | CCN(CC)CCCC(C)Nc1ccnc2cc(Cl)ccc12 (configuration not stated) [CHLOROQUINE] |  | 9.67 | 
